Structures can show the parent of a compound that is named as a salt.
System: U937 cells adhered to HUVEC stimulated by TNFα
Experiment: Inhibitory effect on cell adhesion (U937 adhesion to TNFα-stimulated HUVEC)
Format: cell-based
Conditions: Homo sapiens, read-out: Inhibitory activity against cell adhesion, Percent inhibition (%); for inhibition at 1 µM: 1 μM test agent; for inhibition at 10 µM: 10 μM test agent
Description: (Inhibitory Effect on Cell Adhesion)
This test was conducted by reference to the method of Ross et al. (J. Biol. Chem., 267, 8537-8543 (1992)). More specifically, after human umbilical venous endothelial cells (HUVEC) were cultured on a 48-well plate to confluent growth, TNFα was added thereto. Upon elapsed time of 5 hours after the addition, U937, which is a human monocytic/histocytic cell fluorescence-labeled with PKH2 (product of Dainippon Pharmaceutical Co., Ltd.), was added in a proportion of 1×10^6 cells per well. After the plate was left at rest at room temperature for 1 hour, unadhered U937 was washed out and lysed in 1% Triton X-100 to measure a remaining fluorescence intensity (excitation wavelength: 480 nm; measuring wavelength: 530 nm). HUVEC and U937 were cultured in EGM-2 (product of Sanko Junyaku K.K.) and 10% FCS-containing RPMI1640, respectively. Each test agent was added to HUVEC upon the addition of TNFα and to U937 24 hours prior to the cell adhesion test. The inhibitory activity was calculated out according to the equation [100−(C−B)/(A−B)×100 (%)], wherein A is the number of U937 cells adhered to HUVEC stimulated by TNFα when no test agent was added, B is the number of U937 cells adhered to HUVEC not stimulated by TNFα when no test agent was added, and C is the number of U937 cells adhered to HUVEC stimulated by TNFα when the test agent was added. As control compounds, Test Compound 1 described in Japanese Patent Application Laid-Open No. 9-143075 and dilazep described in Japanese Patent Application Laid-Open No. 11-92382 were simultaneously evaluated.

SMILES	inhibition at 1 µM	inhibition at 10 µM
COc1cc(-c2cc(CN3CCN(Cc4ccnc(-c5cc(OC)c(OC)c(OC)c5)c4)[C@@H](Cc4ccccc4)C3=O)ccn2)cc(OC)c1OC [Example 9, (3S)-3-benzyl-2-oxo-N,N′-bis[[2-(3,4,5-trimethoxyphenyl)pyridin-4-yl]methyl]piperazine sesqui-hydrochloride]	38%	86%
COc1cc(-c2cc(CN3CCN(Cc4ccnc(-c5cc(OC)c(OC)c(OC)c5)c4)[C@@H](CC(C)C)C3=O)ccn2)cc(OC)c1OC [Example 8, (3S)-3-(2-methylpropyl)-2-oxo-N,N′-bis[[2-(3,4,5-trimethoxyphenyl)pyridin-4-yl]methyl]piperazine 2.5 hydrochloride]	63%	79%
COc1cc(-c2cc(CN3CCN(Cc4ccnc(-c5cc(OC)c(OC)c(OC)c5)c4)[C@@H](C(C)C)C3=O)ccn2)cc(OC)c1OC [Example 6, (3S)-3-isopropyl-2-oxo-N,N′-bis[[2-(3,4,5-trimethoxyphenyl)pyridin-4-yl]methyl]piperazine sesqui-hydrochloride]	63%	77%
COc1cc(-c2cc(CN3CCN(Cc4ccnc(-c5cc(OC)c(OC)c(OC)c5)c4)[C@H](C(C)C)C3=O)ccn2)cc(OC)c1OC [Example 7, (3R)-3-isopropyl-2-oxo-N,N′-bis[[2-(3,4,5-trimethoxyphenyl)pyridin-4-yl]methyl]piperazine tri-hydrochloride]	51%	70%
COc1cc(C(=O)OCCCN2CCCN(CCCOC(=O)c3cc(OC)c(OC)c(OC)c3)CC2)cc(OC)c1OC [Dilazep, dilazep, reference compound]	12%	25%
COc1cc(-c2cc(CN3C[C@@H](C)N(Cc4ccnc(-c5cc(OC)c(OC)c(OC)c5)c4)[C@@H](C)C3)ccn2)cc(OC)c1OC [Example 1, cis-N,N′-bis[[2-(3,4,5-trimethoxyphenyl)pyridin-4-yl]methyl]-2,6-dimethylpiperazine tetrahydrochloride]	76%	78%
COc1cc(-c2cc(CN3CCN(Cc4ccnc(-c5cc(OC)c(OC)c(OC)c5)c4)C(=O)C3)ccn2)cc(OC)c1OC [Example 4, 2-oxo-N,N′-bis[[2-(3,4,5-trimethoxyphenyl)-pyridin-4-yl]methyl]piperazine 2.5 hydrochloride]	60%	79%
COc1cc(-c2cc(CN3CCN(Cc4ccnc(-c5cc(OC)c(OC)c(OC)c5)c4)[C@@H](C)C3=O)ccn2)cc(OC)c1OC [Example 5, (3S)-3-methyl-2-oxo-N,N′-bis[[2-(3,4,5-trimethoxyphenyl)pyridin-4-yl]methyl]piperazine 2.5 hydrochloride]	51%	85%
COc1cc(-c2cc(CN3CCN(Cc4ccnc(-c5cc(OC)c(OC)c(OC)c5)c4)C(CO)C3)ccn2)cc(OC)c1OC (centres unmarked) [Example 3, N,N′-bis[[2-(3,4,5-trimethoxyphenyl)pyridin-4-yl]methyl]-2-hydroxymethylpiperazine dimaleate]	34%	90%
COc1cc(-c2cc(CN3C[C@H](C)N(Cc4ccnc(-c5cc(OC)c(OC)c(OC)c5)c4)C[C@H]3C)ccn2)cc(OC)c1OC [Example 2, trans-N,N′-bis[[2-(3,4,5-trimethoxyphenyl)-pyridin-4-yl]methyl]-2,5-dimethylpiperazine tetrahydrochloride]	42%	64%

From US6432957B1, “Piperazine derivative” (Kowa Co., Ltd., priority 2001, dated 2002)
